#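 1) Cells in 96-well plates. 2) Compound, 48 h, 5 concentrations. 3) Linear interpolation between surrounding doses. 4) Unreached endpoint = highest concentration. TGI denotes the concentration required for complete inhibition of growth.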 Where a SMILES comes first, the peptide text is derived from it. [ ]: non-standard residue; d: D form. ξ: configuration not given here. ξ2Thi = NC(Cc1cccs1)C(=O)O; ξR = N=C(N)NCCCC(N)C(=O)O; ξI = CCC(C)C(N)C(=O)O; ξL = CC(C)CC(N)C(=O)O; ξK = NCCCCC(N)C(=O)O; ξT = CC(O)C(N)C(=O)O; ξA = CC(N)C(=O)O
# What was measured:
# Assay in all cases: DTP human tumour cell line panel, 48 h
# 786-0 renal = system: 786-0 renal
# A498 renal = system: A498 renal
# A549 NSCLC = system: A549 NSCLC
# ACHN renal = system: ACHN renal
# BT-549 breast = system: BT-549 breast
# CAKI-1 renal = system: CAKI-1 renal
# COLO 205 colon = system: COLO 205 colon
# DU-145 prostate = system: DU-145 prostate
# EKVX NSCLC = system: EKVX NSCLC
# HCC-2998 colon = system: HCC-2998 colon
# HCT-116 colon = system: HCT-116 colon
# HCT-15 colon = system: HCT-15 colon
# HL-60(TB) leukemia = system: HL-60(TB) leukemia
# HOP-92 NSCLC = system: HOP-92 NSCLC
# HT29 colon = system: HT29 colon
# KM12 colon = system: KM12 colon
# LOX IMVI melanoma = system: LOX IMVI melanoma
# M14 melanoma = system: M14 melanoma
# MALME-3M melanoma = system: MALME-3M melanoma
# MCF7 breast = system: MCF7 breast
# MDA-MB-231 breast = system: MDA-MB-231 breast
# MDA-MB-435 = system: MDA-MB-435
# MOLT-4 leukemia = system: MOLT-4 leukemia
# NCI-H226 lung = system: NCI-H226 lung
# NCI-H23 lung = system: NCI-H23 lung
# NCI-H460 lung = system: NCI-H460 lung
# NCI-H522 lung = system: NCI-H522 lung
# NCI/ADR-RES ovarian = system: NCI/ADR-RES ovarian
# OVCAR-4 ovarian = system: OVCAR-4 ovarian
# OVCAR-5 ovarian = system: OVCAR-5 ovarian
# RPMI-8226 leukemia = system: RPMI-8226 leukemia
# RXF 393 renal = system: RXF 393 renal
# SF-268 CNS = system: SF-268 CNS
# SF-295 CNS = system: SF-295 CNS
# SF-539 CNS = system: SF-539 CNS
# SK-OV-3 ovarian = system: SK-OV-3 ovarian
# SNB-19 CNS = system: SNB-19 CNS
# SNB-75 CNS = system: SNB-75 CNS
# SR leukemia = system: SR leukemia
# SW-620 colon = system: SW-620 colon
# T-47D breast = system: T-47D breast
# TK-10 renal = system: TK-10 renal
# U251 CNS = system: U251 CNS
# UACC-62 melanoma = system: UACC-62 melanoma
# UO-31 renal = system: UO-31 renal
# CCRF-CEM leukemia = system: CCRF-CEM leukemia
# HOP-62 NSCLC = system: HOP-62 NSCLC
# HS 578T breast = system: HS 578T breast
# IGROV1 ovarian = system: IGROV1 ovarian
# K-562 leukemia = system: K-562 leukemia
# OVCAR-3 ovarian = system: OVCAR-3 ovarian
# OVCAR-8 ovarian = system: OVCAR-8 ovarian
# PC-3 prostate = system: PC-3 prostate
# SK-MEL-2 melanoma = system: SK-MEL-2 melanoma
# SK-MEL-28 melanoma = system: SK-MEL-28 melanoma
# SK-MEL-5 melanoma = system: SK-MEL-5 melanoma
# SN12C renal = system: SN12C renal
# UACC-257 melanoma = system: UACC-257 melanoma
smiles,measurement,setting,value
Nc1ccc(S(=O)(=O)Nc2nnc(S(N)(=O)=O)s2)cc1,TGI,786-0 renal,> 100 µM
same,TGI,A498 renal,> 100 µM
same,TGI,A549 NSCLC,> 100 µM
same,TGI,ACHN renal,> 100 µM
same,TGI,BT-549 breast,> 100 µM
same,TGI,CAKI-1 renal,> 100 µM
same,TGI,COLO 205 colon,> 100 µM
same,TGI,DU-145 prostate,> 100 µM
same,TGI,EKVX NSCLC,> 100 µM
same,TGI,HCC-2998 colon,> 100 µM
same,TGI,HCT-116 colon,> 100 µM
same,TGI,HCT-15 colon,> 100 µM
same,TGI,HL-60(TB) leukemia,> 100 µM
same,TGI,HOP-92 NSCLC,> 100 µM
same,TGI,HT29 colon,> 100 µM
same,TGI,KM12 colon,> 100 µM
same,TGI,LOX IMVI melanoma,> 100 µM
same,TGI,M14 melanoma,> 100 µM
same,TGI,MALME-3M melanoma,> 100 µM
same,TGI,MCF7 breast,> 100 µM
same,TGI,MDA-MB-231 breast,> 100 µM
same,TGI,MDA-MB-435,> 100 µM
same,TGI,MOLT-4 leukemia,> 100 µM
same,TGI,NCI-H226 lung,> 100 µM
same,TGI,NCI-H23 lung,> 100 µM
same,TGI,NCI-H460 lung,> 100 µM
same,TGI,NCI-H522 lung,> 100 µM
same,TGI,NCI/ADR-RES ovarian,> 100 µM
same,TGI,OVCAR-4 ovarian,> 100 µM
same,TGI,OVCAR-5 ovarian,> 100 µM
same,TGI,RPMI-8226 leukemia,> 100 µM
same,TGI,RXF 393 renal,> 100 µM
same,TGI,SF-268 CNS,> 100 µM
same,TGI,SF-295 CNS,> 100 µM
same,TGI,SF-539 CNS,> 100 µM
same,TGI,SK-OV-3 ovarian,> 100 µM
same,TGI,SNB-19 CNS,> 100 µM
same,TGI,SNB-75 CNS,> 100 µM
same,TGI,SR leukemia,> 100 µM
same,TGI,SW-620 colon,> 100 µM
same,TGI,T-47D breast,> 100 µM
same,TGI,TK-10 renal,> 100 µM
same,TGI,U251 CNS,> 100 µM
same,TGI,UACC-62 melanoma,> 100 µM
same,TGI,UO-31 renal,> 100 µM
COc1ccc(Oc2cccc(/C=C3/C(=O)Nc4ccccc43)c2)cc1,TGI,786-0 renal,24.1 µM
same,TGI,A498 renal,25.4 µM
same,TGI,A549 NSCLC,> 100 µM
same,TGI,ACHN renal,23.8 µM
same,TGI,BT-549 breast,29.5 µM
same,TGI,CAKI-1 renal,20.9 µM
same,TGI,CCRF-CEM leukemia,22.1 µM
same,TGI,COLO 205 colon,14 µM
same,TGI,DU-145 prostate,27.1 µM
same,TGI,EKVX NSCLC,25.1 µM
same,TGI,HCC-2998 colon,21.3 µM
same,TGI,HCT-116 colon,15.2 µM
same,TGI,HCT-15 colon,21.8 µM
same,TGI,HL-60(TB) leukemia,12.5 µM
same,TGI,HOP-62 NSCLC,28 µM
same,TGI,HOP-92 NSCLC,14.3 µM
same,TGI,HS 578T breast,45.8 µM
same,TGI,HT29 colon,12.9 µM
same,TGI,IGROV1 ovarian,20.9 µM
same,TGI,K-562 leukemia,7.63 µM
same,TGI,KM12 colon,18 µM
same,TGI,M14 melanoma,24.3 µM
same,TGI,MALME-3M melanoma,24.2 µM
same,TGI,MCF7 breast,12.8 µM
same,TGI,MDA-MB-435,13.8 µM
same,TGI,MOLT-4 leukemia,13 µM
same,TGI,NCI-H23 lung,16.2 µM
same,TGI,NCI-H460 lung,25 µM
same,TGI,NCI-H522 lung,19.6 µM
same,TGI,NCI/ADR-RES ovarian,17.8 µM
same,TGI,OVCAR-3 ovarian,21.6 µM
same,TGI,OVCAR-4 ovarian,27 µM
same,TGI,OVCAR-5 ovarian,31.5 µM
same,TGI,OVCAR-8 ovarian,> 100 µM
same,TGI,PC-3 prostate,18.8 µM
same,TGI,RXF 393 renal,15.7 µM
same,TGI,SF-268 CNS,24.1 µM
same,TGI,SF-295 CNS,19.9 µM
same,TGI,SF-539 CNS,33.1 µM
same,TGI,SK-MEL-2 melanoma,23 µM
same,TGI,SK-MEL-28 melanoma,23.6 µM
same,TGI,SK-MEL-5 melanoma,11.3 µM
same,TGI,SK-OV-3 ovarian,31 µM
same,TGI,SN12C renal,22.8 µM
same,TGI,SNB-19 CNS,19.1 µM
same,TGI,SNB-75 CNS,28.3 µM
same,TGI,SW-620 colon,23.2 µM
same,TGI,T-47D breast,9.75 µM
same,TGI,TK-10 renal,29.9 µM
same,TGI,U251 CNS,14.2 µM
same,TGI,UACC-257 melanoma,27.8 µM
same,TGI,UO-31 renal,20 µM
CCC(C)C(NC(=O)C(Cc1cccs1)NC(=O)C(CC(C)C)NC(=O)C(CC(C)C)NC(=O)C(CCCCN)NC(=O)C(CCCN=C(N)N)NC(=O)[C@H](Cc1ccc(O)cc1)NC(=O)C(NC(=O)C(C)NC(=O)C(N)CC(C)C)C(C)O)C(=O)NC(CC(C)C)C(N)=O (stereo partly specified) (H-[ξL][ξA][ξT]Y[ξR][ξK][ξL][ξL][ξ2Thi][ξI][ξL]-NH2),TGI,BT-549 breast,> 50 µM
same,TGI,NCI-H226 lung,> 50 µM
same,TGI,NCI-H23 lung,> 50 µM
same,TGI,UACC-257 melanoma,> 50 µM
